Data published in the supplement of paper PMC10307832.

What was measured:
Assay in all cases: relative viability (nuclei count vs DMSO), 5 days (fraction); higher = more cells survive
[1] = compound: Cn1cncc1[C@@](N)(c1ccc(Cl)cc1)c1ccc2c(c1)c(-c1cccc(Cl)c1)cc(=O)n2C [Tipifarnib] + CC(=O)Nc1cccc(-n2c(=O)n(C3CC3)c(=O)c3c(Nc4ccc(I)cc4F)n(C)c(=O)c(C)c32)c1 [Trametinib] (partner 0.02 µM)
In short: (§1)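 Values are medians from duplicate plates. Each reflects relative viability, defined as the nuclei count of treated wells over that of vehicle wells. Lung cancer cell lines in 1536-well plates were pin-tool dosed one day after seeding with one drug alone or with a fixed anchor-drug dose plus five library-drug doses (not always all listed) in √10 steps, then fixed, stained and imaged at 4× after 5 days.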

[2] = compound: Cn1cncc1[C@@](N)(c1ccc(Cl)cc1)c1ccc2c(c1)c(-c1cccc(Cl)c1)cc(=O)n2C [Tipifarnib] + COc1cccc2cc(-c3nc([C@H]4CC[C@H](C(=O)O)CC4)n4ncnc(N)c34)[nH]c12 [OSI-027] (partner 0.5 µM)
In short: as §1

[3] = compound: Cn1cncc1[C@@](N)(c1ccc(Cl)cc1)c1ccc2c(c1)c(-c1cccc(Cl)c1)cc(=O)n2C [Tipifarnib] + C[C@@H](Oc1cc(-c2cnn(C3CCNCC3)c2)cnc1N)c1c(Cl)ccc(F)c1Cl [Crizotinib] (partner 1 µM)
In short: as §1

[4] = compound: Cn1cncc1[C@@](N)(c1ccc(Cl)cc1)c1ccc2c(c1)c(-c1cccc(Cl)c1)cc(=O)n2C [Tipifarnib] + N=C(N)NC(=N)NCCc1ccccc1 [Phenformin] (partner 250 µM)
In short: as §1

Row | Cell Line | relative viability ([1]; first compound 0.01 µM) | relative viability ([1]; first compound 0.03162 µM) | relative viability ([1]; first compound 0.1 µM) | relative viability ([1]; first compound 0.3162 µM) | relative viability ([1]; first compound 1 µM) | relative viability ([2]; first compound 0.01 µM) | relative viability ([2]; first compound 0.03162 µM) | relative viability ([2]; first compound 0.1 µM) | relative viability ([2]; first compound 0.3162 µM) | relative viability ([2]; first compound 1 µM) | relative viability ([3]; first compound 0.01 µM) | relative viability ([3]; first compound 0.03162 µM) | relative viability ([3]; first compound 0.1 µM) | relative viability ([3]; first compound 0.3162 µM) | relative viability ([3]; first compound 1 µM) | relative viability ([4]; first compound 0.01 µM) | relative viability ([4]; first compound 0.03162 µM) | relative viability ([4]; first compound 0.1 µM) | relative viability ([4]; first compound 0.3162 µM) | relative viability ([4]; first compound 1 µM)
1 | NCI-H3122 | 0.244 | 0.215 | 0.213 | 0.211 | 0.185 | 0.949 | 0.568 | 0.384 | 0.233 | 0.225 | 0.281 | 0.217 | 0.249 | 0.256 | 0.254 | 0.413 | 0.419 | 0.419 | 0.356 | 0.228
2 | PC-3 [JPC-3] | 0.726 | 0.61 | 0.531 | 0.494 | 0.478 | 0.751 | 0.67 | 0.598 | 0.343 | 0.324 | 1.04 | 0.928 | 0.88 | 0.828 | 0.709 | 0.513 | 0.44 | 0.458 | 0.399 | 0.377
3 | PC-14 | 0.579 | 0.357 | 0.447 | 0.2 | 0.334 | 0.795 | 0.29 | 0.216 | 0.157 | 0.124 | 0.928 | 0.834 | 0.748 | 0.469 | 0.43 | 0.512 | 0.494 | 0.282 | 0.239 | 0.128
4 | RERF-LC-KJ | 0.828 | 0.961 | 0.776 | 0.652 | 0.646 | 0.529 | 0.427 | 0.392 | 0.41 | 0.309 | 0.794 | 0.847 | 0.754 | 0.633 | 0.713 | 0.447 | 0.401 | 0.392 | 0.366 | 0.339
5 | SK-LU-1 | 0.572 | 0.483 | 0.442 | 0.384 | 0.392 | 0.324 | 0.286 | 0.293 | 0.222 | 0.181 | 0.932 | 0.665 | 0.667 | 0.639 | 0.657 | 0.528 | 0.324 | 0.307 | 0.275 | 0.283
6 | SK-MES-1 | 0.465 | 0.539 | 0.54 | 0.459 | 0.601 | 0.642 | 0.453 | 0.354 | 0.265 | 0.332 | 0.974 | 0.864 | 0.95 | 0.69 | 0.656 | 0.659 | 0.663 | 0.651 | 0.619 | 0.57
7 | SW 1573 | 0.487 | 0.354 | 0.362 | 0.255 | 0.25 | 0.583 | 0.244 | 0.292 | 0.238 | 0.17 | 0.767 | 0.701 | 0.462 | 0.317 | 0.316 | 0.362 | 0.299 | 0.268 | 0.156 | 0.197
8 | UMC-11 | 0.653 | 0.569 | 0.471 | 0.377 | 0.301 | 0.432 | 0.359 | 0.348 | 0.301 | 0.343 | 0.24 | 0.278 | 0.224 | 0.181 | 0.184 | 0.332 | 0.311 | 0.303 | 0.251 | 0.238
